Test results published in patent publication US10293001B2, “Compositions and methods for restoring or rejuvenating stem/progenitor cell function” (University of Pittsburgh—Of the Commonwealth System of …, priority 2012, dated 2019).

Key:
[1] = test system: Ercc1^−/Δ mice; experiment: Chronic treatment with mitochondrial radical scavenger in progeroid mice; type: in vivo, mouse
[2] = test system: Ercc1^−/− MEFs; experiment: Reversal of senescence (SA-β-gal) of Ercc1−/− MEFs; type: cell-based, mouse; details: within 24 hours of treatment
[3] = test system: aged WT MDSPCs; experiment: Myogenic fusion of aged MDSPCs with IKKβ inhibition; type: cell-based, mouse; parameters: dose or concentration left out as unconfirmed; details: under fusion conditions
Text: To determine further whether the NF-κB signaling pathway plays a role in driving age-related stem cell dysfunction, whether pharmacologic inhibition of IKK-β would restore the myogenic potential of aged WT MDSPCs was examined. […] MDSPCs were isolated from 30 month old p65^+/− and 24 month old WT mice and compared the myogenic potential of 30 month old p65^+/− MDSPCs in vitro to naturally aged WT MDSPCs. The results confirmed that MDSPCs from p65^+/− aged mice (30 month) were more myogenic than MDSPCs from 24 month old WT mice.

## CC(C)C[C@@H](/C=C/[C@H](Cc1ccccc1)C(=O)N1CCC[C@H]1C(=O)N[C@H](C(=O)N[C@@H](CCCNC(=O)OCc1ccccc1)C(=O)NC1CC(C)(C)N([O])C(C)(C)C1)C(C)C)NC(=O)OC(C)(C)C [XJB-5-131]
[1]
  onset of aging-related degenerative changes: delay the onset

## O=C(c1ccc(Nc2nccc(-c3cc4ccccc4s3)n2)cc1)N1CCC(N2CCCC2)CC1 [IKKiVII]
[2]
  reversing senescence of Ercc1−/− MEFs (>60% of cells SA-β gal+): could be reversed

## NC(=O)Nc1sc(-c2ccc(F)cc2)cc1C(N)=O [IKKβ inhibitor IV]
[3]
  fusion index of aged MDSPCs: significantly increased
